Laboratory results reported in patent US11566022B2, “3-(5-methoxy-1-oxoisoindolin-2-yl)piperidine-2,6-dione derivatives and uses thereof” (NOVARTIS AG, priority 2019, dated 2023).
Read-outs that look alike come from different tables or passages of the source.

Molecular target: HiBit-WIZ fusion protein (Homo sapiens, UniProt O95785+Q96SW2)
Experiment: Quantification of WIZ protein levels in HiBit tag fusion protein assay (WIZ HiBit assay in 293T cells)
Type: cell-based
Parameters: Dmax: dose or concentration left out as unconfirmed
[1] = HEK-293T, 100 minus Amax; 293T cells; read-out: % degradation of WIZ (100-Amax)
[2] = HEK-293T, DMSO-normalized, curve-fitted percentage of WIZ-HiBit remaining at 25 uM; 293T cells; read-out: WIZ Amax
[3] = WIZ HiBit assay in 293T cells; 10-point, 5-fold dose response, highest concentration 25 μM, about 18 hours; read-out: WIZ AC50

Sequence of HiBit-WIZ fusion protein (O95785 whole entry, the tested form may be a part): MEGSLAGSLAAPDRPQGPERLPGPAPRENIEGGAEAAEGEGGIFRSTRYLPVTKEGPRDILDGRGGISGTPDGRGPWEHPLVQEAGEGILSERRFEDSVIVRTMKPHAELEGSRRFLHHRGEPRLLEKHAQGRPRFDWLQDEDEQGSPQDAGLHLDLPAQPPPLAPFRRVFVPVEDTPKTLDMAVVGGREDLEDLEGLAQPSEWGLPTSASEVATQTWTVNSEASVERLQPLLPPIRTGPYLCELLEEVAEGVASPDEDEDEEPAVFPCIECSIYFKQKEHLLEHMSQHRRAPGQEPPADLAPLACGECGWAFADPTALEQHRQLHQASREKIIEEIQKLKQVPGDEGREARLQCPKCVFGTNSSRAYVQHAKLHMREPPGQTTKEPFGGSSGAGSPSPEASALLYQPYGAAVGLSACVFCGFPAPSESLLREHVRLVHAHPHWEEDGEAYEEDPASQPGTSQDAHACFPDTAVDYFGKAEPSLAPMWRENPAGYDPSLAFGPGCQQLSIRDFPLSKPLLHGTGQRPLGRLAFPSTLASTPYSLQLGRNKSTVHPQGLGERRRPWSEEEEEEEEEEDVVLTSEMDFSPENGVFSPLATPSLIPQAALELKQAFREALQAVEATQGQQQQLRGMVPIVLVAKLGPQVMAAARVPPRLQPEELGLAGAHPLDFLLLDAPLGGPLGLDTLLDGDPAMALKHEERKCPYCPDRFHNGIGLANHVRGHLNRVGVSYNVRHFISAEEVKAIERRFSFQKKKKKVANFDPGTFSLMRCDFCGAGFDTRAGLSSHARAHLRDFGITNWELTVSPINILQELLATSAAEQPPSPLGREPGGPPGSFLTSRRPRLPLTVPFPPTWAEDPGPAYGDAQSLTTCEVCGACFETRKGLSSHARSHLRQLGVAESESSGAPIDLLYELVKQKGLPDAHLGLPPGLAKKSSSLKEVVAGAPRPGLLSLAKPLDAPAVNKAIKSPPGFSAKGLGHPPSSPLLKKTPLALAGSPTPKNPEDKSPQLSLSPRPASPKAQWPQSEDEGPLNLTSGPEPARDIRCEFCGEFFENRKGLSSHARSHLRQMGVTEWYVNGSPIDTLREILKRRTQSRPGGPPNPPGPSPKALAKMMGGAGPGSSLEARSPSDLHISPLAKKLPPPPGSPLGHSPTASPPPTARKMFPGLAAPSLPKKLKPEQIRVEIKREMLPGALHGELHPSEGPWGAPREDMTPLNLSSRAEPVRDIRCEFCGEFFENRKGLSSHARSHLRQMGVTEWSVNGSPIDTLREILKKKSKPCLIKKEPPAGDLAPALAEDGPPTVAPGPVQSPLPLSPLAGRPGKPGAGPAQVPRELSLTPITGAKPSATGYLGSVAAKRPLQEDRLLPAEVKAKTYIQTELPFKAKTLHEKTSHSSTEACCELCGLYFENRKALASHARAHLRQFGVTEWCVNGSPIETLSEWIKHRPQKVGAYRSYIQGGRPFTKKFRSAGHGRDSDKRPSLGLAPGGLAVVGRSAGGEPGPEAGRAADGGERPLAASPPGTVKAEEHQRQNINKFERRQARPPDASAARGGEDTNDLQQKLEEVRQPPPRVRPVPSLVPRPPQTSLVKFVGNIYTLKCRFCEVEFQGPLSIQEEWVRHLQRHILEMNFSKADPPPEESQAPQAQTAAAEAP
Sequence of HiBit-WIZ fusion protein (Q96SW2 whole entry, the tested form may be a part): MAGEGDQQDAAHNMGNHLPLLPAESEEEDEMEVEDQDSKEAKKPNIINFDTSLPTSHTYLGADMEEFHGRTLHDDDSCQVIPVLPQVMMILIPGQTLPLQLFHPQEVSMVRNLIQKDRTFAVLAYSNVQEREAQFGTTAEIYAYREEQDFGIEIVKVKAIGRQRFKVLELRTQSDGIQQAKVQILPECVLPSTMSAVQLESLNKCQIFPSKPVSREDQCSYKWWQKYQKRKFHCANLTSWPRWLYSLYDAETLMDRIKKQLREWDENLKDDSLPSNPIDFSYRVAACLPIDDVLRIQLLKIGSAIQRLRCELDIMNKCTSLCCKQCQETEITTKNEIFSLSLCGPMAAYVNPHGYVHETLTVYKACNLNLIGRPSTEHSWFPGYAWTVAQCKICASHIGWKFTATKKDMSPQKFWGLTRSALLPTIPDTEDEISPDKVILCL
Sequence of HiBit-WIZ fusion protein (Q16531 whole entry partner, the tested form may be a part): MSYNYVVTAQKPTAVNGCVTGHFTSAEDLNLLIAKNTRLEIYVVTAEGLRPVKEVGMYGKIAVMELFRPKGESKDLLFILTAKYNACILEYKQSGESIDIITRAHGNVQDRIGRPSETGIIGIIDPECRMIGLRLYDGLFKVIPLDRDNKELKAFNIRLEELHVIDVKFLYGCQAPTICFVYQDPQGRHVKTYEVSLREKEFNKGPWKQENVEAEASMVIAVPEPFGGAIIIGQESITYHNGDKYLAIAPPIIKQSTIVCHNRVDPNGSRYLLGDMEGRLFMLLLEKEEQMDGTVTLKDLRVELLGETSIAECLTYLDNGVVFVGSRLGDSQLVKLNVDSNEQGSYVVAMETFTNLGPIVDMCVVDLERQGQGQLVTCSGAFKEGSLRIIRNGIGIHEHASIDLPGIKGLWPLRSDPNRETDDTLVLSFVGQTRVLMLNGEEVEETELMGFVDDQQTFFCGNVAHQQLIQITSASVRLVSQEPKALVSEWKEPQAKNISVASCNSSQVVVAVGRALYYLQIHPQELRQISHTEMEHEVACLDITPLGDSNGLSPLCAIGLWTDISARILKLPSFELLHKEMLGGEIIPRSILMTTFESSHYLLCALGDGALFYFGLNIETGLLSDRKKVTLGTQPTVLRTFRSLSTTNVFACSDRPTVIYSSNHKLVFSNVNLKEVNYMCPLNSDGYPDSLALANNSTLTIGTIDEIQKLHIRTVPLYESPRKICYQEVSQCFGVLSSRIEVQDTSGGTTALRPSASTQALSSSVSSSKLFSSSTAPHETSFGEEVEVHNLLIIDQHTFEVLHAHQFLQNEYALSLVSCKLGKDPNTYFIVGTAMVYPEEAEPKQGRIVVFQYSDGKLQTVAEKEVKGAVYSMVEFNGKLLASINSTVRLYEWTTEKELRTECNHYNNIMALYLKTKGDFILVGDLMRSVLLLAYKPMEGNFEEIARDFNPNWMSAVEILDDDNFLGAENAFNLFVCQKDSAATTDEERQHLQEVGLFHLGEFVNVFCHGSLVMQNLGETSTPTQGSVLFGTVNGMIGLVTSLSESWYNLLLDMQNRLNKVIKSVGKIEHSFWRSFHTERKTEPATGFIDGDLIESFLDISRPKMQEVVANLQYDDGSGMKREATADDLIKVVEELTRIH

SMILES	Dmax [1]	remaining activity at up to 25 µM [2]	DC50 [3]	Dmax (HEK-293T, read-out: % degradation of WIZ (100-Amax))	remaining activity (HEK-293T, read-out: WIZ Amax)	DC50 (read-out: WIZ AC50; WIZ HiBit assay in 293T cells; 10-point, 5-fold dose response, highest concentration 25 μM, about 18 hours)	% degradation of WIZ (100-Amax) (100 minus Amax, at 25 uM; 293T cells)	WIZ Amax (DMSO-normalized, curve-fitted percentage of WIZ-HiBit remaining at 25 uM; 293T cells)
Cc1nnc(-c2ccc(CN3CCCC[C@H]3COc3ccc4c(c3)CN(C3CCC(=O)NC3=O)C4=O)cc2)o1 (stereo partly drawn) [Compound I-50i]	28.8%	71.2%	> 25 µM					
O=C1CCC(N2Cc3cc(OC[C@H]4CCCCN4Cc4ncccc4O)ccc3C2=O)C(=O)N1 (stereo partly drawn) [Compound I-50ej]	17.2%	82.8%	> 25 µM					
O=C1CCC(N2Cc3cc(OC[C@H]4CCCCN4Cc4ccc(N5CCN(Cc6ccccc6)CC5)cc4)ccc3C2=O)C(=O)N1 (stereo partly drawn) [Compound I-50br]	94.1%	5.9%	0.044 µM					
NS(=O)(=O)c1ccc(CN2CCCC[C@H]2COc2ccc3c(c2)CN(C2CCC(=O)NC2=O)C3=O)cc1 (stereo partly drawn) [Compound I-50de]				58.5%	41.5%	18.4 µM		
Cc1noc(C)c1CN1CCCC[C@H]1COc1ccc2c(c1)CN(C1CCC(=O)NC1=O)C2=O (stereo partly drawn) [Compound I-50ao]	96.8%	3.2%	0.089 µM					
O=C1CCC(N2Cc3cc(OC[C@@H]4CCCCN4C(=O)CCC(=O)N4CCOCC4)ccc3C2=O)C(=O)N1 (stereo partly drawn) [Compound I-72eo]	4.8%	95.2%	> 25 µM					
Cn1c(CN2CCCC[C@H]2COc2ccc3c(c2)CN(C2CCC(=O)NC2=O)C3=O)nc2ccccc21 (stereo partly drawn) [Compound I-50ap]	30.1%	69.9%	> 25 µM					
CC(C)(C)OC(=O)N1CCC(c2ccccc2CN2CCCC[C@@H]2COc2ccc3c(c2)CN(C2CCC(=O)NC2=O)C3=O)CC1 (stereo partly drawn) [Compound I-122, Tert-butyl 4-(2-(((2R)-2-(((2-(2,6-dioxopiperidin-3-yl)-1-oxoisoindolin-5-yl)oxy)methyl)piperidin-1-yl)methyl)phenyl)piperidine-1-carboxylate]	87.6%	12.4%	0.051 µM					
O=C(O)Cn1cnc(CN2CCCC[C@@H]2COc2ccc3c(c2)CN(C2CCC(=O)NC2=O)C3=O)c1 (stereo partly drawn) [Compound I-50da]	65.1%	34.9%	5.13 µM					
CC(C)(C)Cc1cc(C(=O)N2CCCC[C@H]2COc2ccc3c(c2)CN(C2CCC(=O)NC2=O)C3=O)no1 (stereo partly drawn) [Compound I-72bz]	46.7%	53.3%	> 25 µM					
CCc1cncc(C(=O)N2CCCC[C@H]2COc2ccc3c(c2)CN(C2CCC(=O)NC2=O)C3=O)c1 (stereo partly drawn) [Compound I-72ay]	17.6%	82.4%	> 25 µM					
O=C1CCC(N2Cc3cc(OC[C@@H]4CCCCN4Cc4ccc(O)c(Cl)c4)ccc3C2=O)C(=O)N1 (stereo partly drawn) [Compound I-50b]	83%	17%	1.48 µM					
CC(C)(C)c1cc(CC(=O)N2CCCC[C@H]2COc2ccc3c(c2)CN(C2CCC(=O)NC2=O)C3=O)on1 (stereo partly drawn) [Compound I-72hj]	0.7%	99.3%	> 25 µM					
COC1CCC(CN2CCCCC2C(C)Oc2ccc3c(c2)CN(C2CCC(=O)NC2=O)C3=O)CC1 (single isomer, unassigned) [Compound I-219, 3-(5-(1-(1-((4-methoxycyclohexyl)methyl)piperidin-2-yl)ethoxy)-1-oxoisoindolin-2-yl)piperidine-2,6-dione]	73.9%	26.1%	1.4 µM					
O=C1CCC(N2Cc3cc(OC[C@H]4CCCCN4Cc4cccc5c4NC(=O)CO5)ccc3C2=O)C(=O)N1 (stereo partly drawn) [Compound I-180, 3-(1-oxo-5-(((R)-1-((3-oxo-3,4-dihydro-2H-benzo[b][1,4]oxazin-5-yl)methyl)piperidin-2-yl)methoxy)isoindolin-2-yl)piperidine-2,6-dione]	15.3%	84.7%	0.02 µM					
CCN1C2CCC(C2)C1COc1ccc2c(c1)CN(C1CCC(=O)NC1=O)C2=O (single isomer, unassigned) [I-255 (Isomer 4), 3-(5-((endo-2-ethyl-2-azabicyclo[2.2.1]heptan-3-yl)methoxy)-1-oxoisoindolin-2-yl)piperidine-2,6-dione]			0.034 µM				73.0%	27.0%
O=C1CCC(N2Cc3cc(OC[C@H]4CCCCN4Cc4cn[nH]c4)ccc3C2=O)C(=O)N1 (stereo partly drawn) [Compound I-50an]	82.2%	17.8%	1.71 µM					
O=C1CCC(N2Cc3cc(OC[C@H]4CCCCN4Cc4c[nH]cn4)ccc3C2=O)C(=O)N1 (stereo partly drawn) [Compound I-50ds]	70.8%	29.2%	3.04 µM					
CCN1CCOC[C@H]1COc1ccc2c(c1)CN(C1CCC(=O)NC1=O)C2=O (stereo partly drawn) [Compound I-64, 3-(5-(((S)-4-ethylmorpholin-3-yl)methoxy)-1-oxoisoindolin-2-yl)piperidine-2,6-dione]	21.5%	78.5%	> 25 µM					
O=C1CCC(N2Cc3cc(OC[C@@H]4CCCCN4C(=O)c4ccc(N5CCOCC5)cc4)ccc3C2=O)C(=O)N1 (stereo partly drawn) [Compound I-72an]	53.8%	46.2%	13.8 µM					
CCc1cc(CN2CCCC[C@@H]2COc2ccc3c(c2)CN(C2CCC(=O)NC2=O)C3=O)ccc1C1CCN(C(=O)OC(C)(C)C)CC1 (stereo partly drawn) [Compound I-155, Tert-butyl 4-(4-(((2R)-2-(((2-(2,6-dioxopiperidin-3-yl)-1-oxoisoindolin-5-yl)oxy)methyl)piperidin-1-yl)methyl)-2-ethylphenyl)piperidine-1-carboxylate]	75.2%	24.9%	0.02 µM					
O=C1CCC(N2Cc3cc(OCC4CC(F)(F)CCN4)ccc3C2=O)C(=O)N1 (stereo not drawn) [Compound I-251, 3-(5-((4,4-difluoropiperidin-2-yl)methoxy)-1-oxoisoindolin-2-yl)piperidine-2,6-dione]	78.3%	21.7%	0.5 µM					
COc1cc(C#N)ccc1CN1CCCC[C@H]1COc1ccc2c(c1)CN(C1CCC(=O)NC1=O)C2=O (stereo partly drawn) [Compound I-50r]	34.4%	65.6%	> 25 µM					
Cc1nnsc1CN1CCCC[C@H]1COc1ccc2c(c1)CN(C1CCC(=O)NC1=O)C2=O (stereo partly drawn) [Compound I-50at]	9.8%	90.2%	> 25 µM					
CCc1noc(CC)c1C(=O)N1CCCC[C@H]1COc1ccc2c(c1)CN(C1CCC(=O)NC1=O)C2=O (stereo partly drawn) [Compound I-72s]	78.2%	21.8%	0.962 µM					
O=C1CCC(N2Cc3cc(OC[C@H]4CCCCN4Cc4ccc(OCCN5CCOCC5)cc4)ccc3C2=O)C(=O)N1 (stereo partly drawn) [Compound I-50cg]	92.7%	7.3%	0.043 µM					
O=C1CCC(N2Cc3cc(OC[C@@H]4CCCCN4Cc4cn[nH]c4)ccc3C2=O)C(=O)N1 (stereo partly drawn) [Compound I-50cc]	71.7%	28.3%	5.97 µM					
